Patent US20060069132A1, “Azolecarboxamide herbicides” (priority 2004, published 2006)

Columns and labels:
blackgrass = assay: Test B postemergence herbicide test; assay type: in vivo, Alopecurus myosuroides
How it was run: (§1)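 Visual control ratings, 0–100 versus untreated controls, taken after 13 to 15 days in the greenhouse. Blackgrass received a postemergence spray at the 1- to 4-leaf stage (2–18 cm); ducksalad, umbrella sedge and barnyardgrass were flooded-paddy treated at 2 leaves.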

lambsquarters = assay: Test B pre-/postemergence herbicide test; assay type: in vivo, Chenopodium album
How it was run: (§2)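 Visual rating, 0 (no effect) to 100 (complete control), versus untreated controls after 13–15 d in greenhouse. Pre- and postemergence applications (postemergence plants 2–18 cm, 1–4 leaves); flooded paddy arm at 2-leaf stage. Compounds in non-phytotoxic solvent plus surfactant.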

barnyardgrass [1] = assay: Test B pre-/postemergence herbicide test; assay type: in vivo, Echinochloa crus-galli
How it was run: (§3)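 Response was scored visually 13 to 15 days after treatment against untreated greenhouse controls, 0 meaning no effect and 100 complete control. Formulations (solvent mixture plus surfactant) went onto soil after planting, onto foliage of 1- to 4-leaf plants, and onto 2-leaf plants in a flooded paddy set including rice and barnyardgrass.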

[2] = tested on: small flower umbrella sedge; assay: Test B flooded paddy test; assay type: in vivo, Cyperus difformis; settings: scale 0 to 100 (0 no effect, 100 complete control)
How it was run: as §1

pigweed = assay: Test B pre-/postemergence herbicide test; assay type: in vivo, Amaranthus retroflexus
How it was run: as §2

ducksalad = assay: Test B flooded paddy test; assay type: in vivo, Heteranthera limosa; settings: scale 0 to 100 (0 no effect, 100 complete control)
How it was run: as §1

cocklebur = assay: Test B pre-/postemergence herbicide test; assay type: in vivo, Xanthium strumarium
How it was run: as §3

large crabgrass = assay: Test B pre-/postemergence herbicide test; assay type: in vivo, Digitaria sanguinalis
How it was run: as §2

velvetleaf = assay: Test B pre-/postemergence herbicide test; assay type: in vivo, Abutilon theophrasti
How it was run: as §2

corn = assay: Test B pre-/postemergence herbicide test; assay type: in vivo, Zea mays
How it was run: as §2

morningglory = assay: Test B pre-/postemergence herbicide test; assay type: in vivo, Ipomoea coccinea
How it was run: as §3

wild oat = assay: Test B postemergence herbicide test; assay type: in vivo, Avena fatua
How it was run: (§4)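 After treating 2-leaf paddy plants or 2–18 cm postemergence plants (1 to 4 leaves) with formulated chemical, researchers kept them in a greenhouse for 13–15 days. Effects were judged visually versus controls: 0 indicates none, 100 total control.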

barnyardgrass [3] = assay: Test B flooded paddy test; assay type: in vivo, Echinochloa crus-galli; settings: scale 0 to 100 (0 no effect, 100 complete control)
How it was run: as §1

rice = assay: Test B flooded paddy test; assay type: in vivo, Oryza sativa; settings: scale 0 to 100 (0 no effect, 100 complete control)
How it was run: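 Read-out: visual comparison with controls, scored 0 to 100, where 100 means complete control and 0 no effect. Formulated chemicals were applied postemergence to plants 2–18 cm tall (1- to 4-leaf), or to flooded-paddy plants at the 2-leaf stage, then held 13 to 15 days under glass.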

Surinam grass = assay: Test B pre-/postemergence herbicide test; assay type: in vivo, Urochloa decumbens
How it was run: as §2

wheat = assay: Test B postemergence herbicide test; assay type: in vivo, Triticum aestivum; set-up: key to Wheat plant response rating: 0 = no effect, 100 = complete control
How it was run: as §4

giant foxtail = assay: Test B pre-/postemergence herbicide test; assay type: in vivo, Setaria faberi
How it was run: as §2

[4] = Postemergence, 500 g ai/ha, scale 0 (no effect) to 100 (complete control)
[5] = postemergence, 125 g ai/ha, scale 0 to 100
[6] = Postemergence, 250 g ai/ha, scale 0 (no effect) to 100 (complete control)
[7] = postemergence, 62 g ai/ha, scale 0 to 100
[8] = 1000 g ai/ha, visual rating, 13 to 15 days
[9] = 125 g ai/ha, visual rating, scale 0 (no effect) to 100 (complete control), postemergence
[10] = postemergence, 500 g ai/ha, scale 0 to 100, 0 is no effect, 100 is complete control
[11] = 125 g ai/ha, 0 is no effect, 100 is complete control, preemergence
[12] = 500 g ai/ha, visual rating, 0 = no effect, 100 = complete control, preemergence

CC(C)(C)n1nc(Br)c(C(=O)Nc2cccc(C(=O)NC3CC3)c2)n1 [Compound 435]
60: Lambsquarters plant response rating (lambsquarters; [4]) | Pigweed plant response rating (pigweed; [4]) | Oat, Wild plant response rating (wild oat; [4]) | Wheat plant response rating (wheat; [4])
70: Morningglory plant response rating (morningglory; [5])
30: Blackgrass plant response rating (blackgrass; [4]) | Crabgrass, Large plant response rating (large crabgrass; [4]) | Corn plant response rating (corn; [4]) | Surinam Grass plant response rating (Surinam grass; [4]) | Foxtail, Giant plant response rating (giant foxtail; [4])
90: Morningglory plant response rating (morningglory; [4])
50: Lambsquarters plant response rating (lambsquarters; [5]) | Oat, Wild plant response rating (wild oat; [5])
20: Blackgrass plant response rating (blackgrass; [5]) | Cocklebur plant response rating (cocklebur; [4]) | Cocklebur plant response rating (cocklebur; [5]) | Velvetleaf plant response rating (velvetleaf; [4]) | Corn plant response rating (corn; [5]) | Surinam Grass plant response rating (Surinam grass; [5]) | Wheat plant response rating (wheat; [5]) | Foxtail, Giant plant response rating (giant foxtail; [5])
0: Sedge, Umbrella plant response rating ([2]; 125 g ai/ha) | Ducksalad plant response rating (ducksalad; 125 g ai/ha) | Barnyardgrass plant response rating (barnyardgrass [3]; 125 g ai/ha) | Rice plant response rating (rice; 125 g ai/ha)
10: Barnyardgrass plant response rating (barnyardgrass [1]; Postemergence, 125 g ai/ha, scale 0 (no effect) to 100 (complete control)) | Barnyardgrass plant response rating (barnyardgrass [1]; [4]) | Crabgrass, Large plant response rating (large crabgrass; [5]) | Velvetleaf plant response rating (velvetleaf; [5]) | Wheat plant response rating (wheat; 500 g ai/ha, scale 0 to 100, 0 no effect, 100 complete control, preemergence)
40: Pigweed plant response rating (pigweed; [5])

CCOC(=O)c1ccc(F)c(NC(=O)c2cc(C(C)C)nn2CC)c1 [Compound 73]
40: Oat, Wild plant response rating (wild oat; [6])
30: Blackgrass plant response rating (blackgrass; [6]) | Blackgrass plant response rating (blackgrass; [7]) | Velvetleaf plant response rating (velvetleaf; [7]) | Corn plant response rating (corn; [6]) | Barnyardgrass plant response rating (barnyardgrass [3]; [8]) | Wheat plant response rating (wheat; [6]) | Foxtail, Giant plant response rating (giant foxtail; [6])
50: Velvetleaf plant response rating (velvetleaf; [6]) | Rice plant response rating (rice; [8])
10: Lambsquarters plant response rating (lambsquarters; [6]) | Barnyardgrass plant response rating (barnyardgrass [1]; [6]) | Pigweed plant response rating (pigweed; [7]) | Ducksalad plant response rating (ducksalad; [8]) | Crabgrass, Large plant response rating (large crabgrass; [6]) | Morningglory plant response rating (morningglory; [6]) | Morningglory plant response rating (morningglory; [7]) | Surinam Grass plant response rating (Surinam grass; [6]) | Surinam Grass plant response rating (Surinam grass; [7]) | Foxtail, Giant plant response rating (giant foxtail; [7])
80: Sedge, Umbrella plant response rating [2, 8]
0: Lambsquarters plant response rating (lambsquarters; [7]) | Barnyardgrass plant response rating (barnyardgrass [1]; [7]) | Crabgrass, Large plant response rating (large crabgrass; [7]) | Corn plant response rating (corn; [7])
20: Pigweed plant response rating (pigweed; [6]) | Cocklebur plant response rating (cocklebur; [6]) | Cocklebur plant response rating (cocklebur; [7]) | Oat, Wild plant response rating (wild oat; [7]) | Wheat plant response rating (wheat; 250 g ai/ha, scale 0 to 100, 0 no effect, 100 complete control, preemergence) | Wheat plant response rating (wheat; [7])

CCn1nc(C(C)(C)C)cc1C(=O)Nc1cc(OCCF)ccc1F [Compound 350]
60: Pigweed plant response rating (pigweed; [10])
10: Lambsquarters plant response rating (lambsquarters; [10]) | Crabgrass, Large plant response rating (large crabgrass; [10]) | Velvetleaf plant response rating (velvetleaf; [10]) | Surinam Grass plant response rating (Surinam grass; [10])
0: Blackgrass plant response rating (blackgrass; [9]) | Blackgrass plant response rating (blackgrass; [10]) | Plant response rating (0 to 100 scale), Lambsquarters (lambsquarters; [11]) | Lambsquarters plant response rating (lambsquarters; [9]) | Plant response rating, Lambsquarters (lambsquarters; [12]) | Plant response rating (0 to 100 scale), Barnyardgrass (barnyardgrass [1]; [11]) | Barnyardgrass plant response rating (barnyardgrass [1]; [9]) | Plant response rating, Barnyardgrass (barnyardgrass [1]; [12]) | Barnyardgrass plant response rating (barnyardgrass [1]; [10]) | Sedge, Umbrella plant response rating ([2]; 1000 g ai/ha) | Plant response rating (0 to 100 scale), Pigweed (pigweed; [11]) | Pigweed plant response rating (pigweed; [9]) | Plant response rating, Pigweed (pigweed; [12]) | Ducksalad plant response rating (ducksalad; 1000 g ai/ha) | Plant response rating (0 to 100 scale), Cocklebur (cocklebur; [11]) | Cocklebur plant response rating (cocklebur; [9]) | Plant response rating, Cocklebur (cocklebur; [12]) | Plant response rating (0 to 100 scale), Crabgrass, Large (large crabgrass; [11]) | Crabgrass, Large plant response rating (large crabgrass; [9]) | Plant response rating, Crabgrass, Large (large crabgrass; [12]) | Plant response rating (0 to 100 scale), Velvetleaf (velvetleaf; [11]) | Velvetleaf plant response rating (velvetleaf; [9]) | Plant response rating (0 to 100 scale), Corn (corn; [11]) | Corn plant response rating (corn; [9]) | Plant response rating, Corn (corn; [12]) | Plant response rating (0 to 100 scale), Morningglory (morningglory; [11]) | Morningglory plant response rating (morningglory; [9]) | Plant response rating, Morningglory (morningglory; [12]) | Oat, Wild plant response rating (wild oat; [9]) | Oat, Wild plant response rating (wild oat; [10]) | Barnyardgrass plant response rating (barnyardgrass [3]; 1000 g ai/ha) | Rice plant response rating (rice; 1000 g ai/ha) | Plant response rating (0 to 100 scale), Surinam Grass (Surinam grass; [11]) | Surinam Grass plant response rating (Surinam grass; [9]) | Plant response rating, Surinam Grass (Surinam grass; [12]) | Wheat plant response rating (wheat; [9]) | Wheat plant response rating (wheat; [10]) | Plant response rating (0 to 100 scale), Foxtail, Giant (giant foxtail; [11]) | Foxtail, Giant plant response rating (giant foxtail; [9]) | Plant response rating, Foxtail, Giant (giant foxtail; [12])
30: Foxtail, Giant plant response rating (giant foxtail; [10])
20: Cocklebur plant response rating (cocklebur; [10]) | Corn plant response rating (corn; [10])
